System: C. elegans
Conditions: Table S2, C. elegans SS assay, 110 μM, averages of 4 data points

| SMILES | Percentage of motility inhibition 0 h | Percentage of motility inhibition 24 h |
| --- | --- | --- |
| O=C(O)[C@H]1O[C@@H](Oc2cc(O)c3c(=O)cc(-c4ccc(O)c(O)c4)oc3c2)[C@H](O)[C@@H](O)[C@@H]1O [Luteolin 7‐O‐glucuronide] | 22% | 45% |
| O=C(O)[C@H]1O[C@@H](O[C@H]2[C@H](Oc3cc(O)c4c(=O)cc(-c5ccc(O)c(O)c5)oc4c3)O[C@H](C(=O)O)[C@@H](O)[C@@H]2O)[C@H](O)[C@@H](O)[C@@H]1O [Luteolin 7‐diglucuronide] | 20% | 7% |
| Oc1cc(O)c2ccc(-c3ccc(O)c(O)c3)[o+]c2c1.[Cl-] [Luteolinidin (chloride)] | 29% | 8% |
| O=C(O)[C@H]1O[C@@H](Oc2cc(-c3cc(=O)c4c(O)cc(O)cc4o3)ccc2O)[C@H](O)[C@@H](O)[C@@H]1O [Luteolin‐3‐O‐beta‐D‐glucuronide] | 0% | 26% |
| Cl.O[C@H]1[C@H]2c3cc4c(cc3CN3CCC(=C[C@@H]1O)[C@H]23)OCO4 [Lycorine (hydrochloride)] | 15% | 0% |
| CN[C@@H](Cc1c[nH]c2ccccc12)C(=O)O [L‐(+)‐Abrine] | 0% | 0% |
| CN1[C@@H]2CC[C@H]1CC(OC(=O)[C@H](CO)c1ccccc1)C2.CN1[C@@H]2CC[C@H]1CC(OC(=O)[C@H](CO)c1ccccc1)C2.O=S(=O)(O)O (stereo partly shown) [L‐Hyoscyamine (sulfate)] | 18% | 9% |
| C[C@@H]1O[C@@H](O[C@H]2[C@H](O[C@H]3CC[C@@]4(C)[C@@H](CC[C@]5(C)[C@@H]4CC=C4[C@@H]6CC(C)(C)CC[C@]6(C(=O)O[C@@H]6O[C@H](CO[C@@H]7O[C@H](CO)[C@@H](O)[C@H](O)[C@H]7O)[C@@H](O)[C@H](O)[C@H]6O)CC[C@]45C)[C@]3(C)CO)OC[C@H](O)[C@@H]2O)[C@H](O)[C@H](O[C@@H]2O[C@H](CO)[C@@H](O)[C@H](O)[C@H]2O)[C@H]1O [Macranthoidin A] | 1% | 1% |
| C[C@@H]1O[C@@H](O[C@H]2[C@H](O[C@H]3CC[C@@]4(C)[C@@H](CC[C@]5(C)[C@@H]4CC=C4[C@@H]6CC(C)(C)CC[C@]6(C(=O)O[C@@H]6O[C@H](CO[C@@H]7O[C@H](CO)[C@@H](O)[C@H](O)[C@H]7O)[C@@H](O)[C@H](O)[C@H]6O)CC[C@]45C)[C@]3(C)CO)OC[C@H](O)[C@@H]2O)[C@H](O)[C@H](O[C@@H]2O[C@H](CO)[C@@H](O[C@@H]3O[C@H](CO)[C@@H](O)[C@H](O)[C@H]3O)[C@H](O)[C@H]2O)[C@H]1O [Macranthoidin B] | 6% | 0% |
| O=C1N[C@@H](Cc2ccc(O)cc2)C(=O)N2CCC[C@@H]12 [Maculosin] | 0% | 0% |
| CC(=O)O.NCc1ccc(S(N)(=O)=O)cc1 [Mafenide (Acetate)] | 21% | 10% |
| CC(=O)[O-].CC(=O)[O-].O.O.O.O.[Mg+2] [Magnesium acetate tetrahydrate] | 2% | 0% |
| CCOC(=O)c1c(C)n(C)c2ccc(O)cc12 [Mecarbinate] | 38% | 36% |
| CC1(C)CC[C@]2(C(=O)O)CC[C@]3(C)C(=CC[C@@H]4[C@@]5(C)C[C@H](O)[C@H](O)[C@@](C)(C(=O)O)[C@@H]5CC[C@]43C)[C@@H]2C1 [Medicagenic acid] | 0% | 5% |
| Cl.OC(c1cc(C(F)(F)F)nc2c(C(F)(F)F)cccc12)C1CCCCN1 (stereo not shown) [Mefloquine (hydrochloride)] | 45% | 22% |
| OCC1=C[C@@H](O)[C@]2(O[C@@H]3O[C@H](CO)[C@@H](O)[C@H](O)[C@H]3O)C=CO[C@@H](O[C@@H]3O[C@H](CO)[C@@H](O)[C@H](O)[C@H]3O)[C@H]12 [Melittoside] | 0% | 4% |
| CC1CCC(C(C)C)C(O)C1 (stereo not shown) [Menthol] | 3% | 17% |
| C[C@@H](O)[C@H]1C(=O)N2C(C(=O)O)=C(S[C@@H]3CN[C@H](C(=O)N(C)C)C3)[C@H](C)[C@H]12.O.O.O [Meropenem (trihydrate)] | 12% | 9% |
| COC[C@]12CN(C)[C@@H]3[C@@H]4[C@H](OC)[C@H]1[C@@]3([C@@H](OC)C[C@H]2O)[C@@H]1C[C@@]2(O)[C@H](OC(=O)c3ccccc3)[C@@H]1[C@]4(OC(C)=O)[C@@H](O)[C@@H]2OC [Mesaconitine] | 0% | 3% |
| Cc1c(N(C)CS(=O)(=O)[O-])c(=O)n(-c2ccccc2)n1C.[Na+] [Metamizole (sodium)] | 17% | 2% |
| C=C1c2cccc(O)c2C(=O)C2=C(O)[C@]3(O)C(=O)C(C(N)=O)=C(O)[C@@H](N(C)C)[C@@H]3[C@@H](O)[C@H]12.Cl [Methacycline (hydrochloride)] | 17% | 20% |
| COc1cccc(OC)c1C(=O)N[C@@H]1C(=O)N2[C@@H]1SC(C)(C)[C@@H]2C(=O)[O-].[Na+] [Methicillin (sodium salt)] | 16% | 1% |
| COC(=O)c1ccc(O)cn1 [Methyl 5‐hydroxypyridine‐2‐carboxylate] | 7% | 1% |
| CNc1ccccc1C(=O)OC [Methyl N‐methylanthranilate] | 30% | 4% |
| COC(=O)C1=CO[C@@H](O[C@@H]2O[C@H](CO)[C@@H](O)[C@H](O)[C@H]2O)[C@@H]2C(CO)=C[C@H](O)[C@H]12 [Methyl deacetylasperulosidate] | 16% | 30% |
| COC(=O)[C@]12CCC(C)(C)C[C@H]1C1=CC[C@@H]3[C@@]4(C)CCC(=O)C(C)(C)[C@@H]4CC[C@@]3(C)[C@]1(C)CC2 [Methyl oleanonate] | 4% | 1% |
